pIC50: −log10 of the molar value.
Target: human MER (528-end) (Homo sapiens (Human), UniProt Q12866)
Test: HTRF Kinase Activity Biochemical Assay (KinEASE-TK)
Settings: 10 uM ATP
Outline: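 Activity read-out is the HTRF ratio (665 nm over 620 nm emission, ×10,000; excitation 340 nm) after 1 h detection with 0.375 nM Eu3+-cryptate anti-TK antibody plus 0.062 uM SA-XL665. Preceding kinase step: human MER (528-end), biotinylated TK substrate, 1 h, room temperature.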

Chain of human MER (528-end) (Q12866 528-999 limits assumed): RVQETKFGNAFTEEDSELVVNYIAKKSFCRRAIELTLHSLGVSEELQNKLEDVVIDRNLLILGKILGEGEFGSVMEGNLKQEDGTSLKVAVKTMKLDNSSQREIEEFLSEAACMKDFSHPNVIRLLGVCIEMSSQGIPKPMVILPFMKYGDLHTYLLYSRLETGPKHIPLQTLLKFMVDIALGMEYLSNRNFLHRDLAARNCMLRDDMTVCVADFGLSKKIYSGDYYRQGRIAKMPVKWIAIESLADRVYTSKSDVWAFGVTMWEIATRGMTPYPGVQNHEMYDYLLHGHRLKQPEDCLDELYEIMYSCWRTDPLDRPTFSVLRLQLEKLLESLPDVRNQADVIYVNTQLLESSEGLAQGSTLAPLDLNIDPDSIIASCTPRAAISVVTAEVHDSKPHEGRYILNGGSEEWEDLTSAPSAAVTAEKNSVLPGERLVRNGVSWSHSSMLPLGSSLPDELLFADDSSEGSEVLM

pIC50 | Compound
7.00 to 8.00 | Cn1cc(-c2cnc(N)c(C(=O)N[C@@H]3CCN(C(=O)c4ccc(-c5ccccc5Br)cc4)C3)c2)cn1 [Example 373, (R)-2-amino-N-(1-(2′-bromo-[1,1′-biphenyl]-4-carbonyl)pyrrolidin-3-yl)-5-(1-methyl-1H-pyrazol-4-yl)nicotinamide]
< 6.00 | Cn1cc(-c2cnc(N)c(C(=O)N[C@@H]3CCN(C(=O)c4ccc(C#N)cc4)C3)c2)cn1 [Example 419, (R)-2-amino-N-(1-(4-cyanobenzoyl)pyrrolidin-3-yl)-5-(1-methyl-1H-pyrazol-4-yl)nicotinamide]
7.00 to 8.00 | CC(C)(C)n1cc(-c2cnc(N)c(C(=O)N[C@@H]3CCN(C(=O)c4ccc(-c5ccccc5Cl)cc4)C3)c2)cn1 [Example 577, (R)-2-amino-5-(1-(tert-butyl)-1H-pyrazol-4-yl)-N-(1-(2′-chloro-[1,1′-biphenyl]-4-carbonyl)pyrrolidin-3-yl)nicotinamide]
6.00 to 7.00 | Cn1cc(-c2cnc(N)c(C(=O)N[C@@H]3CCN(C(=O)c4ccc(-c5ccc(C#N)cc5)cc4)C3)c2)cn1 [Example 726, (R)-2-amino-N-(1-(4′-cyano-[1,1′-biphenyl]-4-carbonyl)pyrrolidin-3-yl)-5-(1-methyl-1H-pyrazol-4-yl)nicotinamide]
< 6.00 | C/C(=C\c1ccccc1)C(=O)N1CC[C@@H](NC(=O)c2cc(-c3cnn(C)c3)cnc2N)C1 [Example 426, (R,E)-2-amino-5-(1-methyl-1H-pyrazol-4-yl)-N-(1-(2-methyl-3-phenylacryloyl)pyrrolidin-3-yl)nicotinamide]
< 6.00 | C/C(=C\c1ccc(C(=O)N2CC[C@@H](NC(=O)c3cc(-c4cnn(C)c4)cnc3N)C2)cc1)c1ccccc1 [Example 826, (R,E)-2-amino-5-(1-methyl-1H-pyrazol-4-yl)-N-(1-(4-(2-phenylprop-1-en-1-yl)benzoyl)pyrrolidin-3-yl)nicotinamide]
< 6.00 | CC(C)NC(=O)N1CC[C@@H](NC(=O)c2cc(-c3cnn(C)c3)cnc2N)C1 [Example 8, (R)-2-amino-N-(1-(isopropylcarbamoyl)pyrrolidin-3-yl)-5-(1-methyl-1H-pyrazol-4-yl)nicotinamide]
< 6.00 | Cn1cc(-c2cnc(N)c(C(=O)N[C@@H]3CCN(C(=O)c4ccc(-c5ccc(C(=O)N6CCNCC6)cc5)cc4)C3)c2)cn1 [Example 467, (R)-2-amino-5-(1-methyl-1H-pyrazol-4-yl)-N-(1-(4′-(piperazine-1-carbonyl)-[1,1′-biphenyl]-4-carbonyl)pyrrolidin-3-yl)nicotinamide]
< 6.00 | Cn1cc(-c2cnc(N)c(C(=O)N[C@@H]3CCN(C(=O)Nc4cccc(F)c4)C3)c2)cn1 [Example 2, (R)-2-amino-N-(1-((3-fluorophenyl)carbamoyl)pyrrolidin-3-yl)-5-(1-methyl-1H-pyrazol-4-yl)nicotinamide]
< 6.00 | Cn1cc(-c2cnc(N)c(C(=O)N[C@@H]3CCN(C(=O)Oc4cccc(OCc5ccccc5)c4)C3)c2)cn1 [Example 59, 3-(benzyloxy)phenyl (R)-3-(2-amino-5-(1-methyl-1H-pyrazol-4-yl)nicotinamido)pyrrolidine-1-carboxylate]
< 6.00 | Cc1cc(-c2cc(F)ccc2Cl)ccc1C(=O)N1CC[C@@H](NC(=O)c2cc(-c3cnn(C)c3)cnc2N)C1 [Example 691, (R)-2-amino-N-(1-(2′-chloro-5′-fluoro-3-methyl-[1,1′-biphenyl]-4-carbonyl)pyrrolidin-3-yl)-5-(1-methyl-1H-pyrazol-4-yl)nicotinamide]
6.00 to 7.00 | Cn1cc(-c2cnc(N)c(C(=O)N[C@@H]3CCN(C(=O)Nc4cccc(-c5ccc(CN)cc5)c4)C3)c2)cn1 [Example 255, (R)-2-amino-N-(1-((4′-(aminomethyl)-[1,1′-biphenyl]-3-yl)carbamoyl)pyrrolidin-3-yl)-5-(1-methyl-1H-pyrazol-4-yl)nicotinamide]
< 6.00 | Cn1cc(-c2cnc(N)c(C(=O)N[C@@H]3CCN(C(=O)Nc4cccc(CN5CCOCC5)c4)C3)c2)cn1 [Example 26, (R)-2-amino-5-(1-methyl-1H-pyrazol-4-yl)-N-(1-((3-(morpholinomethyl)phenyl)carbamoyl)pyrrolidin-3-yl)nicotinamide]
< 6.00 | CN1CCN(c2ccc(-c3ccc(C(=O)N4CC[C@@H](NC(=O)c5cc(-c6cnn(C)c6)cnc5N)C4)cc3)cc2)CC1 [Example 383, (R)-2-amino-5-(1-methyl-1H-pyrazol-4-yl)-N-(1-(4′-(4-methylpiperazin-1-yl)-[1,1′-biphenyl]-4-carbonyl)pyrrolidin-3-yl)nicotinamide]
< 6.00 | CCc1cccc(NC(=O)N2CC[C@@H](NC(=O)c3cc(-c4cnn(C)c4)cnc3N)C2)c1 [Example 19, (R)-2-amino-N-(1-((3-ethylphenyl)carbamoyl)pyrrolidin-3-yl)-5-(1-methyl-1H-pyrazol-4-yl)nicotinamide]
< 6.00 | Cn1cc(-c2cnc(N)c(C(=O)N[C@@H]3CCN(C(=O)c4cccc(-c5cccc(Cn6ccnc6)c5)c4)C3)c2)cn1 [Example 460, (R)—N-(1-(3′-((1H-imidazol-1-yl)methyl)-[1,1′-biphenyl]-3-carbonyl)pyrrolidin-3-yl)-2-amino-5-(1-methyl-1H-pyrazol-4-yl)nicotinamide]
6.00 to 7.00 | Cn1cc(-c2cnc(N)c(C(=O)N[C@@H]3CCN(C(=O)Nc4ccc(-c5ccccc5)cc4)C3)c2)cn1 [Example 271, (R)—N -(1-([1,1′-biphenyl]-4-ylcarbamoyl)pyrrolidin-3-yl)-2-amino-5-(1-methyl-1H-pyrazol-4-yl)nicotinamide]
7.00 to 8.00 | CN1CCN(Cc2ccc(-c3cccc(NC(=O)N4CC[C@@H](NC(=O)c5cc(-c6cnn(C)c6)cnc5N)C4)c3)cc2)CC1 [Example 268, (R)-2-amino-5-(1-methyl-1H-pyrazol-4-yl)-N-(1-((4′-((4-methylpiperazin-1-yl)methyl)-[1,1′-biphenyl]-3-yl)carbamoyl)pyrrolidin-3-yl)nicotinamide]
6.00 to 7.00 | Cn1cc(-c2cnc(N)c(C(=O)N[C@@H]3CCN(C(=O)Oc4ccc5ccc(OCC6CCNCC6)cc5c4)C3)c2)cn1 [Example 298]
< 6.00 | Cn1cc(-c2cnc(N)c(C(=O)N[C@@H]3CCN(C(=O)Oc4cc(F)cc(F)c4)C3)c2)cn1 [Example 90, 3,5-difluorophenyl (R)-3-(2-amino-5-(1-methyl-1H-pyrazol-4-yl)nicotinamido)pyrrolidine-1-carboxylate]
< 6.00 | Cc1ccc(CN2CC[C@@H](NC(=O)c3cc(-c4cnn(C)c4)cnc3N)C2)cc1C [Example 214, (R)-2-amino-N-(1-(3,4-dimethylbenzyl)pyrrolidin-3-yl)-5-(1-methyl-1H-pyrazol-4-yl)nicotinamide]
< 6.00 | Cn1cc(-c2cnc(N)c(C(=O)N[C@@H]3CCN(C(=O)Nc4cc(C(F)(F)F)cc(C(F)(F)F)c4)C3)c2)cn1 [Example 5, (R)-2-amino-N-(1-((3,5-bis(trifluoromethyl)phenyl)carbamoyl)pyrrolidin-3-yl)-5-(1-methyl-1H-pyrazol-4-yl)nicotinamide]
6.00 to 7.00 | Cn1cc(-c2cnc(N)c(C(=O)N[C@@H]3CCN(C(=O)Nc4cccc(-c5ccc(N6CCNCC6)nc5)c4)C3)c2)cn1 [Example 261, (R)-2-amino-5-(1-methyl-1H-pyrazol-4-yl)-N-(1-((3-(6-(piperazin-1-yl)pyridin-3-yl)phenyl)carbamoyl)pyrrolidin-3-yl)nicotinamide]
6.00 to 7.00 | Cn1cc(-c2cnc(N)c(C(=O)N[C@@H]3CCN(C(=O)Oc4ccc5ccccc5c4)C3)c2)cn1 [Example 103, naphthalen-2-yl (R)-3-(2-amino-5-(1-methyl-1H-pyrazol-4-yl)nicotinamido)pyrrolidine-1-carboxylate]
< 6.00 | Cn1cc(-c2cnc(N)c(C(=O)N[C@@H]3CCN(C(=O)N4CCc5cccc(Br)c5C4)C3)c2)cn1 [Example 29, (R)-2-amino-N-(1-(8-bromo-1,2,3,4-tetrahydroisoquinoline-2-carbonyl)pyrrolidin-3-yl)-5-(1-methyl-1H-pyrazol-4-yl)nicotinamide]
7.00 to 8.00 | Cc1cc(C(=O)N2CC[C@@H](NC(=O)c3cc(-c4cnn(C)c4)cnc3N)C2)ccc1-c1cc(F)ccc1Cl [Example 692, (R)-2-amino-N-(1-(2′-chloro-5′-fluoro-2-methyl-[1,1′-biphenyl]-4-carbonyl)pyrrolidin-3-yl)-5-(1-methyl-1H-pyrazol-4-yl)nicotinamide]
< 6.00 | Cn1cc(-c2cnc(N)c(C(=O)N[C@@H]3CCN(C(=O)c4ccc(F)cc4Cl)C3)c2)cn1 [Example 716, (R)-2-amino-N-(1-(2-chloro-4-fluorobenzoyl)pyrrolidin-3-yl)-5-(1-methyl-1H-pyrazol-4-yl)nicotinamide]
< 6.00 | Cn1cc(-c2cnc(N)c(C(=O)N[C@@H]3CCN(C(=O)OC4CCCC4)C3)c2)cn1 [Example 106, cyclopentyl (R)-3-(2-amino-5-(1-methyl-1H-pyrazol-4-yl)nicotinamido)pyrrolidine-1-carboxylate]

Compound | pIC50
Cn1cc(-c2cnc(N)c(C(=O)N[C@@H]3CCN(C(=O)Oc4cccc(-c5ccc(CNCCN)cc5)c4)C3)c2)cn1 [Example 307, 4′-(((2-aminoethyl)amino)methyl)-[1,1′-biphenyl]-3-yl (R)-3-(2-amino-5-(1-methyl-1H-pyrazol-4-yl)nicotinamido)pyrrolidine-1-carboxylate] | 6.00 to 7.00
CN1CCN(Cc2ccc(-c3cccc(OC(=O)N4CC[C@@H](NC(=O)c5cc(-c6cnn(C)c6)cnc5N)C4)c3)cc2)CC1 [Example 275, 4′-((4-methylpiperazin-1-yl)methyl)-[1,1′-biphenyl]-3-yl (R)-3-(2-amino-5-(1-methyl-1H-pyrazol-4-yl)nicotinamido)pyrrolidine-1-carboxylate] | 6.00 to 7.00
2-amino-N—((R)-1-(3-(((R)-2-(hydroxymethyl)pyrrolidin-1-yl)methyl)-[1,1′-biphenyl]-3-carbonyl)pyrrolidin-3-yl)-5-(1-methyl-1H-pyrazol-4-yl)nicotinamide [Example 462] | < 6.00
